Reference: US20240415819A1, “MACROCYCLIC COMPOUNDS AS PROTEASOME SUBUNIT BETA TYPE-5 INHIBITORS” (Lead Discovery Center GmbH, priority 2021, published 2024)

Key:
[1] = biological target: T1, β5 subunit of the human constitutive proteasome (CPS) (Homo sapiens, UniProt P28074); assay: β5 inhibition assay, human constitutive proteasome (Suc-LLVY-AMC); assay type: biochemical; conditions: IC50 class, Suc-LLVY-AMC substrate
T1 construct: purchased Boston Biochem E-360
Experimental: The enzymatic activity of the β5 subunit of the human constitutive proteasome (CPS) is analyzed. In another assay, which differs from the assay of the human constitutive proteasome only in using the human immunoproteasome (IPS) the enzymatic activity of the β5 subunit of the human immunoproteasome (IPS) is analyzed. […] Inhibition is indicated as IC50 [nM] (“-”=not measured).

HT-29 cells = assay: CellTiter-Glo luminescent cell viability assay with HT-29 cells (72h incubation); assay type: cell-based, human; conditions: Homo sapiens, HT-29, HT29 cells, read-out: CTG HT29
Procedure, shortened: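 400 cells per well in DMEM/10% FCS were dosed after 24 h and kept 72 h at 37 °C, 5% CO2. ATP-based luminescence (CellTiter-Glo) normalized to DMSO and 10 μM staurosporine controls; IC50 by dose-response fit.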

hPMBC = assay: Chymotrypsin-like ProteasomeGlo assay in hPBMC; assay type: cell-based; conditions: Homo sapiens; read-out: Pglo hPBMC
Procedure, shortened: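 B cells isolated from human PBMC (buffy coats, density gradient, magnetic isolation). Cells treated with compound for 105 min at 37 °C, with staurosporine and DMSO included. Chymotrypsin-like proteasome activity read by luminescence with Suc-LLVY-Glo substrate to derive IC50.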

Compound	IC50 [1] [nM]	IC50 (HT-29 cells) [nM]	IC50 (hPMBC) [nM]
Cc1ccc2cc1CNC(=O)[C@H](CCc1ccccc1)NC(=O)[C@@H](N)CC(=O)N1CCCC(CCO2)C1 (stereo partly drawn) [Compound 8, (9S,12S)-12-amino-5^4-methyl-9-phenethyl-4-oxa-7,10-diaza-1(3,1)-piperidina-5(1,3)-benzenacyclotetradecaphane-8,11,14-trione]	< 100	100 to 500	100 to 500
Cc1ccc2cc1CNC(=O)[C@H](CCc1ccccc1)NC(=O)CCC(=O)N1CCCC(CCO2)C1 (stereo partly drawn) [Compound 13, (9S)-5^4-methyl-9-phenethyl-4-oxa-7,10-diaza-1(3,1)-piperidina-5(1,3)-benzenacyclotetradecaphane-8,11,14-trione]	< 100	500 to 1000	
Cc1ccc2cc1CNC(=O)[C@H](CCc1ccccc1)NC(=O)CCCCC(=O)N1CCCC(CCO2)C1 (stereo partly drawn) [Compound 16, (9S)-5^4-methyl-9-phenethyl-4-oxa-7,10-diaza-1(3,1)-piperidina-5(1,3)-benzenacyclohexadecaphane-8,11,16-trione]	< 100	100 to 500	
Cc1ccc2cc1CNC(=O)[C@H](CCc1ccccc1)NC(=O)[C@@H](NC(=O)CCc1cccc(F)c1)CC(=O)N1CCCC(CCO2)C1 (stereo partly drawn) [Compound 25, 3-(3-fluorophenyl)-N-((9S,12S)-5^4-methyl-8,11,14-trioxo-9-phenethyl-4-oxa-7,10-diaza-1(3,1)-piperidina-5(1,3)-benzenacyclotetradecaphane-12-yl)propanamide]	< 100	< 100	
Cc1ccc2cc1CNC(=O)[C@H](CCc1ccccc1)NC(=O)[C@@H](NC(=O)c1ccccc1)CC(=O)N1CCCC(CCO2)C1 (stereo partly drawn) [Compound 26, N-((9S,12S)-5^4-methyl-8,11,14-trioxo-9-phenethyl-4-oxa-7,10-diaza-1(3,1)-piperidina-5(1,3)-benzenacyclotetradecaphane-12-yl)benzamide]	< 100	< 100	
Cc1ccc2cc1CNC(=O)[C@H](CCc1ccccc1)NC(=O)[C@@H](Nc1ccccn1)CC(=O)N1CCCC(CCO2)C1 (stereo partly drawn) [Compound 36, (9S,12S)-5^4-methyl-9-phenethyl-12-(pyridin-2-ylamino)-4-oxa-7,10-diaza-1(3,1)-piperidina-5(1,3)-benzenacyclotetradecaphane-8,11,14-trione]	< 100	100 to 500	
Cc1ccc2cc1CNC(=O)[C@H](CCc1ccccc1)NC(=O)[C@@H](NS(C)(=O)=O)CC(=O)N1CCCC(CCO2)C1 (stereo partly drawn) [Compound 37, N-((9S,12S)-5^4-methyl-8,11,14-trioxo-9-phenethyl-4-oxa-7,10-diaza-1(3,1)-piperidina-5(1,3)-benzenacyclotetradecaphane-12-yl)methanesulfonamide]	< 100	< 100	
CCOC(=O)N[C@H]1CC(=O)N2CCCC(CCOc3ccc(C)c(c3)CNC(=O)[C@H](CCc3ccccc3)NC1=O)C2 (stereo partly drawn) [Compound 39, ethyl ((9S,12S)-5^4-methyl-8,11,14-trioxo-9-phenethyl-4-oxa-7,10-diaza-1(3,1)-piperidina-5(1,3)-benzenacyclotetradecaphane-12-yl)carbamate]	< 100	< 100	
Cc1ccc2cc1CNC(=O)[C@H](CCc1ccccc1)NC(=O)[C@@H](NC(=O)c1ccccn1)CC(=O)N1CCCC(CCO2)C1 (stereo partly drawn) [Compound 40, N-((9S,12S)-5^4-methyl-8,11,14-trioxo-9-phenethyl-4-oxa-7,10-diaza-1(3,1)-piperidina-5(1,3)-benzenacyclotetradecaphane-12-yl)picolinamide]	< 100	< 100	
Cc1ccc2cc1CNC(=O)[C@H](CCc1ccccc1)NC(=O)[C@@H](NC(=O)c1ccncc1)CC(=O)N1CCCC(CCO2)C1 (stereo partly drawn) [Compound 42, N-((9S,12S)-5^4-methyl-8,11,14-trioxo-9-phenethyl-4-oxa-7,10-diaza-1(3,1)-piperidina-5(1,3)-benzenacyclotetradecaphane-12-yl)isonicotinamide]	< 100	< 100	
Cc1ccc2cc1CNC(=O)[C@H](CCc1ccccc1)NC(=O)[C@@H](N1C(=O)CCC1=O)CC(=O)N1CCCC(CCO2)C1 (stereo partly drawn) [Compound 43, (9S,12S)-12-(2,5-dioxopyrrolidin-1-yl)-5^4-methyl-9-phenethyl-4-oxa-7,10-diaza-1(3,1)-piperidina-5(1,3)-benzenacyclotetradecaphane-8,11,14-trione]	< 100	< 100	
Cc1ccc2cc1CNC(=O)[C@H](CCc1ccccc1)NC(=O)[C@@H](Nc1nc3ccccc3[nH]1)CC(=O)N1CCCC(CCO2)C1 (stereo partly drawn) [Compound 45, (9S,12S)-12-((1H-benzo[d]imidazol-2-yl)amino)-5^4-methyl-9-phenethyl-4-oxa-7,10-diaza-1(3,1)-piperidina-5(1,3)-benzenacyclotetradecaphane-8,11,14-trione]	< 100	100 to 500	
Cc1ccc2cc1CNC(=O)C(CCc1cccnc1)NC(=O)CCC(=O)N1CCCC(CCO2)C1 (stereo not drawn) [Compound 51, 5^4-methyl-9-(2-(pyridin-3-yl)ethyl)-4-oxa-7,10-diaza-1(3,1)-piperidina-5(1,3)-benzenacyclotetradecaphane-8,11,14-trione]	< 100	1000 to 5000	
Cc1ccc2cc1CNC(=O)[C@H](CCc1ccccc1)NC(=O)[C@@H](NC(=O)c1n[nH]c3ccccc13)CC(=O)N1CCCC(CCO2)C1 (stereo partly drawn) [Compound 60, N-((9S,12S)-5^4-methyl-8,11,14-trioxo-9-phenethyl-4-oxa-7,10-diaza-1(3,1)-piperidina-5(1,3)-benzenacyclotetradecaphane-12-yl)-1H-indazole-3-carboxamide]	< 100	< 100	100 to 500
COc1ccc(CC(=O)N[C@H]2CC(=O)N3CCCC(CCOc4ccc(C)c(c4)CNC(=O)[C@H](CCc4ccccc4)NC2=O)C3)cc1OC (stereo partly drawn) [Compound 63, 2-(3,4-dimethoxyphenyl)-N-((9S,12S)-5^4-methyl-8,11,14-trioxo-9-phenethyl-4-oxa-7,10-diaza-1(3,1)-piperidina-5(1,3)-benzenacyclotetradecaphane-12-yl)acetamide]	< 100	< 100	< 100
Cc1ccc2cc1CNC(=O)[C@H](Cc1c[nH]c3ccccc13)NC(=O)CCC(=O)N1CCCC(CCO2)C1 (stereo partly drawn) [Compound 77, (9S)-9-((1H-indol-3-yl)methyl)-5^4-methyl-4-oxa-7,10-diaza-1(3,1)-piperidina-5(1,3)-benzenacyclotetradecaphane-8,11,14-trione]	< 100	1000 to 5000	100 to 500
Cc1ccc2cc1CNC(=O)[C@H](C)NC(=O)CCC(=O)N1CCCC(CCO2)C1 (stereo partly drawn) [Compound 78, (9S)-5^4,9-dimethyl-4-oxa-7,10-diaza-1(3,1)-piperidina-5(1,3)-benzenacyclotetradecaphane-8,11,14-trione]	1000 to 5000		500 to 1000
Cc1ccc2cc1CNC(=O)[C@H](Cc1ccccc1)NC(=O)CCC(=O)N1CCCC(CCO2)C1 (stereo partly drawn) [Compound 79, (9S)-9-benzyl-5^4-methyl-4-oxa-7,10-diaza-1(3,1)-piperidina-5(1,3)-benzenacyclotetradecaphane-8,11,14-trione]	100 to 500	1000 to 5000	
CC(=O)N[C@H]1CC(=O)N2CCCC(CCOc3ccc(C)c(c3)CNC(=O)C(CCc3cnccn3)NC1=O)C2 (stereo partly drawn) [Compound 564, N-((12S)-5^4-methyl-8,11,14-trioxo-9-(2-(pyrazin-2-yl)ethyl)-4-oxa-7,10-diaza-1(3,1)-piperidina-5(1,3)-benzenacyclotetradecaphane-12-yl)acetamide]		< 100	< 100
